This is an account of results in PubChem BioAssay AID743353 (Broad Institute, 2014).

Calls of active or inactive are those of the source.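 Rule for the calls: active = compound that lowers cell viability with a fitted AC50 at most twice its highest valid tested dose; inconclusive = flat curve with 30 to 70% loss, or poor fit; inactive = the rest.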

Test system in one experiment: not listed separately
The experiment can be described thus: HEK293 cell cytotoxicity, dose response, cytotoxicity control, luminescence, dry powder, set 13 (AID 743353). Conditions: HEK293T viability, ATP luminescence CellTiter-Glo, 72 h; at 26 µM (top of the series).
In the case of `COc1cc2c(cc1C(=O)N1CCN(c3ccc(C(C)=O)cc3)CC1)OCO2`, the activity change, negative = cytotoxicity is -3.95% (inactive).
Still for that read-out and setting: the figure for `CC(=O)c1ccc(N2CCN(C(=O)c3cccc4c3OCO4)CC2)cc1` is 0.216% (inactive); for `CC(=O)c1ccc(N2CCN(C(=O)Nc3ccc4c(c3)OCO4)CC2)cc1` it is -0.537% (inactive).
For `O=C(c1ccc2c(c1)OCO2)N1CCN(c2ccc(S(=O)(=O)C(F)F)cc2)CC1`, the activity change, negative = cytotoxicity was -6.54% (inactive).
With `N#Cc1ccc(N2CCN(C(=O)c3ccc4c(c3)OCO4)CC2)cc1`, the activity change, negative = cytotoxicity is -2.51% (inactive).
Same read-out and setting: the figure for `O=C(c1ccc2c(c1)OCO2)N1CCN(c2ccc(OC(F)(F)F)cc2)CC1` is -10.3% (inactive).
On the same count and under the same terms, with `CC(=O)c1ccc(N2CCN(C(=O)c3cc4c(cc3Cl)OCO4)CC2)cc1` the figure was -7.51% (inactive); with `CS(=O)(=O)c1ccc(N2CCN(C(=O)c3ccc4c(c3)OCO4)CC2)cc1`, 3.29% (inactive); with `O=C(c1ccc2c(c1)OCO2)N1CCN(c2ccc(C(F)(F)F)cc2)CC1`, -8.83% (inactive).
Consider `CC(=O)c1ccc(N2CCN(C(=O)c3ccc4c(c3)OC(F)(F)O4)CC2)cc1`, for which the activity change, negative = cytotoxicity is -14.8% (inactive).
The same measure, in the same setting: with `CN(C)S(=O)(=O)c1ccc(N2CCN(C(=O)c3ccc4c(c3)OCO4)CC2)cc1` the figure was -16.1% (inactive); with `CC(=O)c1ccc(N2CCN(C(=O)c3ccc4c(c3)OCO4)CC2)cc1`, -2.01% (inactive); with `CC(=O)c1ccc(N2CCN(C(=O)c3cc4c(cn3)OCO4)CC2)cc1`, -11.9% (inactive).
Same read-out and setting: the figure for `CC(=O)c1ccc(N2CCN(C(=O)c3ccc4ocnc4c3)CC2)cc1` is -8.67% (inactive); for `CC(=O)c1ccc(N2CC3CC2CN3C(=O)c2ccc3c(c2)OCO3)cc1` (stereo unspecified) it is 4.9% (inactive); for `CC(=O)c1ccc(N2CCN(C(=O)c3ccc4c(c3C)OCO4)CC2)cc1` it is -17% (inactive).
Take `CC(=O)c1ccc(N2CCN(S(=O)(=O)c3ccc4c(c3)OCO4)CC2)cc1`: the activity change, negative = cytotoxicity was -12.5% (inactive).
Same read-out and setting: the figure for `CC(=O)c1ccc(N2CCN(C(=O)c3cc(Cl)c4c(c3)OCO4)CC2)cc1` is -6.52% (inactive).
For `COc1cc(C(=O)N2CCN(c3ccc(C(C)=O)cc3)CC2)cc2c1OCO2`, the activity change, negative = cytotoxicity is -13.3% (inactive).
Same read-out and setting: with `CC(=O)c1ccc(N2CCN(C(=O)c3ccc4snnc4c3)CC2)cc1` the figure was -9.09% (inactive); with `CC(=O)c1ccc(N2CCN(C(=O)c3ccc(Cl)c(Cl)c3)CC2)cc1`, -9.71% (inactive); with `CC(=O)c1ccc(N2CCCN(C(=O)c3ccc4c(c3)OCO4)CC2)cc1`, 0.038% (inactive).
As to `COc1ccc(C(=O)N2CCN(c3ccc(C(C)=O)cc3)CC2)cc1OC`, the activity change, negative = cytotoxicity was -1.09% (inactive).

The subject of the next experiment is HEK293T viability, ATP luminescence CellTiter-Glo, 72 h. The experiment is described as above.
Details: not given
As to `CC(=O)c1ccc(N2CCN(C(=O)c3ccc4c(c3)OC(C)(C)O4)CC2)cc1`, the AC50 – broadly, the concentration giving half of the maximal activity seen – is > 52 µM (inactive).
Same read-out and setting: the figure for `O=C(c1ccc2c(c1)OCO2)N1CCN(c2ccc(S(=O)(=O)C(F)(F)F)cc2)CC1` is > 52 µM (inactive); for `CC(=O)c1ccc(N2CCN(C(=O)c3cc4c(cc3C)OCO4)CC2)cc1` it is > 52 µM (inactive).
